27 molecules from ChEMBL document CHEMBL1130997, “A 3D-QSAR study on ginkgolides and their analogues with comparative molecular field analysis” (Bioorg Med Chem Lett, 1998) can be followed below.

As a reminder, the IC50 is the point on the concentration scale where inhibition reaches its midpoint. Read a low IC50 as higher potency.

The first assay deals with T1, Platelet-activating factor receptor (Homo sapiens, UniProt P25105). Nature of the assay: Compound was evaluated for anti-platelet activating factor potency.
T1 sequence (P25105 whole entry): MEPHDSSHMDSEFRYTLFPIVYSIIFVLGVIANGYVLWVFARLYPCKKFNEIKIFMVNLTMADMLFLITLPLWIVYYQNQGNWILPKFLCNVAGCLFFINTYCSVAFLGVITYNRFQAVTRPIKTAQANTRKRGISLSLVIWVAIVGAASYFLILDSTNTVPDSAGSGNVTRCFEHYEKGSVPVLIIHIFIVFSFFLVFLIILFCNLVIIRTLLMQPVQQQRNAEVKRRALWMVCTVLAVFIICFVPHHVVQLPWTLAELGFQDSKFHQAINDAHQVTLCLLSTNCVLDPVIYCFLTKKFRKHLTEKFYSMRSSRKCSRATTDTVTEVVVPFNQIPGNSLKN
`C[C@@H]1C(=O)O[C@H]2[C@H](OCc3ccc(Cl)cc3)C34[C@H]5C[C@@H](C(C)(C)C)[C@]36[C@@H](OC(=O)[C@@H]6O)O[C@@]4(C(=O)O5)[C@@]12O` (stereo partly drawn): the IC50 came to 28.9 nM. This counts as double-digit nanomolar.
The same measure, in the same setting: as for `C[C@@H]1C(=O)O[C@H]2[C@H](OCOCc3ccccc3)C34[C@H]5C[C@@H](C(C)(C)C)[C@]36[C@@H](OC(=O)[C@@H]6O)O[C@@]4(C(=O)O5)[C@@]12O` (stereo partly drawn), the figure is 58.8 nM.
On the same count and under the same terms, next, `CC1C(=O)O[C@H]2[C@H](O)C34[C@H]5C[C@@H](C(C)(C)C)[C@]36[C@@H](OC(=O)[C@@H]6OCOCc3ccccc3)O[C@@]4(C(=O)O5)[C@@]12O` (stereo partly drawn): 40.4 nM.
The same measure, in the same setting: as for `C[C@@H]1C(=O)O[C@H]2[C@H](O)[C@@]34[C@H]5C[C@@H](C(C)(C)C)[C@]36[C@@H](OC(=O)[C@@H]6O)O[C@@]4(C(=O)O5)[C@@]12O` [GINKOLIDE B], the figure is 128 nM.

The next assay has as its target T1, Platelet-activating factor receptor. Nature of the assay: Binding affinity against platelet activating factor.
For the molecule `COCO[C@@H]1C(=O)OCC12C13[C@H]4C[C@@]2(C(C)(C)C)O[C@]1(C[C@@H](Cl)[C@@H]3OCOC)C(=O)O4` (stereo partly drawn), the Binding affinity turned out to be 0.3 µM.
The same measure, in the same setting: next, `CC(C)(C)[C@@H]1C[C@H]2OC(=O)[C@]34C[C@@H](Cl)[C@H](Cl)C23[C@@]12[C@@H](OC(=O)[C@@H]2O)O4` (stereo partly drawn): 1.3 µM; `CC(C)(C)[C@]12C[C@H]3OC(=O)[C@@]4(C[C@@H](Cl)[C@H](Cl)C34[C@@]13COC(=O)[C@@H]3O)O2`: 38 µM.
In turn, `C[C@@H]1C(=O)O[C@H]2CC34[C@H]5C[C@@H](C(C)(C)C)C36[C@@H](OC(=O)[C@@H]6O)O[C@@]4(C(=O)O5)[C@]21O` (stereo partly drawn) yielded a Binding affinity of 17.8 µM.
On the same count and under the same terms, as for `C[C@@H]1C(=O)O[C@H]2CC34[C@H]5C[C@@H](C(C)(C)C)C36C(=O)C(=O)O[C@H]6O[C@@]4(C(=O)O5)[C@]21O` (stereo partly drawn), the figure is 3.9 µM; as for `COCO[C@@H]1C(=O)O[C@H]2O[C@@]34CCCC35[C@@H](C[C@@H](C(C)(C)C)[C@@]215)OC4=O` (stereo partly drawn), 21 µM; as for `COCO[C@@H]1C(=O)O[C@H]2O[C@@]34C[C@@H](Br)[C@H](OCOC)C35[C@@H](C[C@@H](C(C)(C)C)C215)OC4=O` (stereo partly drawn), 0.6 µM.
On the same count and under the same terms, as for `CC(C)(C)[C@@H]1C[C@H]2OC(=O)[C@]34CC=CC23[C@]12CC(=O)O[C@H]2O4` (stereo partly drawn), the figure is 80 µM; as for `CC(C)(C)[C@@H]1C[C@H]2OC(=O)[C@@]34CC5OC6C[C@@]1([C@@H](O6)O3)[C@@]24C5Br` (stereo partly drawn), 2.9 µM; as for `C[C@@H]1C(=O)O[C@H]2[C@H](O)C34[C@H]5C[C@H]6C(C)(C)C[C@@]7(O)C(=O)O[C@@H](O[C@@]3(C(=O)O5)[C@@]12O)C647` (stereo partly drawn), 0.7 µM.
The same measure, in the same setting: as for `COCO[C@H]1C(=O)OC[C@@]12C13CCC[C@]14O[C@@]2(C(C)(C)C)C[C@H]3OC4=O`, the figure is 9.4 µM; as for `CC(C)(C)[C@@]12C[C@H]3OC(=O)[C@@]4(C[C@@H](Cl)[C@H](Cl)C34C13COC(=O)[C@H]3O)O2` (stereo partly drawn), 1.1 µM.
Turning to `COCO[C@@H]1C(=O)OCC12C13[C@H]4C[C@@]2(C(C)(C)C)O[C@]1(C[C@@H](Cl)[C@@H]3Cl)C(=O)O4` (stereo partly drawn), the Binding affinity stood at 0.3 µM.
Still for that read-out and setting: next, `CC(C)(C)[C@]12C[C@H]3OC(=O)[C@@]4(CCCC34[C@@]13COC(=O)[C@@H]3O)O2`: 76 µM; `C[C@@H]1C(=O)O[C@H]2[C@H](O)C34[C@@H]5OC(=O)[C@]3(O[C@@H]3OC(=O)[C@H](O)C34[C@H](C(C)(C)C)[C@H]5O)[C@@]12O` (stereo partly drawn): 17 µM; `CC(=O)O[C@H]1C(=O)OC[C@@]12C13CCC[C@]14O[C@@]2(C(C)(C)C)C[C@H]3OC4=O`: 13 µM.
Same read-out and setting: as for `CC(=O)O[C@@H]1C(=O)O[C@H]2O[C@@]34CCCC35[C@@H](C[C@@H](C(C)(C)C)C215)OC4=O` (stereo partly drawn), the figure is 11 µM; as for `CO[C@H]1C[C@@]23[C@@H](O1)O[C@@]14CC=CC21[C@@H](C[C@H]3C(C)(C)C)OC4=O` (stereo partly drawn), 120 µM.
The molecule `C[C@@H]1C(=O)O[C@H]2CC34[C@@H]5OC(=O)[C@]3(O[C@@H]3OC(=O)[C@H](O)C34[C@H](C(C)(C)C)[C@H]5O)[C@]21O` (stereo partly drawn) came in with a Binding affinity of 130 µM.
On the same count and under the same terms, next, `CC1(C)C[C@@]2(O)C(=O)O[C@H]3O[C@@]45CCCC46[C@@H](C[C@@H]1C362)OC5=O` (stereo partly drawn): 9.2 µM; `C[C@@H]1C(=O)O[C@H]2[C@H](O)[C@@]34[C@H]5C[C@@H](C(C)(C)C)[C@]36[C@@H](OC(=O)[C@@H]6O)O[C@@]4(C(=O)O5)[C@@]12O` [GINKOLIDE B]: 0.6 µM; `CC(C)(C)[C@@]12C[C@H]3OC(=O)[C@@]4(CCCC34C13COC(=O)[C@H]3O)O2` (stereo partly drawn): 13 µM.
The same measure, in the same setting: as for `CC(C)(C)[C@@]12C[C@H]3OC(=O)[C@@]4(CCCC34C13COC(=O)C3=O)O2` (stereo partly drawn), the figure is 18 µM.
Same read-out and setting: next, `CC(C)(C)[C@@]12C[C@H]3OC(=O)[C@@]4(C[C@@H](Cl)CC34C13COC(=O)[C@H]3O)O2` (stereo partly drawn): 1.1 µM.
